Data as given in patent publication US11572369B2, “Bicyclic pyridine compositions and methods of using the same for cancer therapy” (UNIVERSITY OF SOUTH CAROLINA, priority 2019, dated 2023).

Columns and labels:
Test in all cases: KINOMEscan
Assay type in all cases: binding
Conditions in all cases: 2000 nM
ANKK1 = molecular target: T1, ANKK1 (Homo sapiens, UniProt Q8NFD2)
T1 construct: DNA label (qPCR read-out); purchased KINOMEscan scanMAX panel (DiscoveRx)

EGFR = molecular target: T2, EGFR (Homo sapiens, UniProt P00533)
T2 construct: purchased DiscoveRx (KINOMEscan scanMAX panel)

ERK8 = molecular target: T3, ERK8 (Homo sapiens, UniProt Q8TD08)
T3 construct: DNA label (qPCR read-out); purchased DiscoveRx (KINOMEscan ScanMAX panel)

MST1R = molecular target: T4, MST1R (Homo sapiens, UniProt Q04912)
T4 construct: DNA label (qPCR read-out); purchased KINOMEscan scanMAX panel (DiscoveRx)

ACVRL1 = molecular target: T5, ACVRL1 (Homo sapiens, UniProt P37023)
T5 construct: purchased DiscoveRx (KINOMEscan scanMAX panel, service)

MAST1 = molecular target: T6, MAST1 (Homo sapiens, UniProt Q9Y2H9)
T6 construct: purchased DiscoveRx (KINOMEscan scanMAX panel, service)

HIPK3 = molecular target: T7, HIPK3 (Homo sapiens, UniProt Q9H422)
T7 construct: DNA label (for qPCR read-out); purchased DiscoveRx (KINOMEscan scanMAX panel, contract assay)

ACVR1B = molecular target: T8, ACVR1B (Homo sapiens, UniProt P36896)
T8 construct: purchased DiscoveRx (KINOMEscan scanMAX panel, service)

HPK1 = molecular target: T9, HPK1 (Homo sapiens, UniProt Q92918)
T9 construct: DNA label (for qPCR read-out); purchased DiscoveRx (KINOMEscan scanMAX panel, contract assay)

EPHA1 = molecular target: T10, EPHA1 (Homo sapiens, UniProt P21709)
T10 construct: purchased DiscoveRx (KINOMEscan scanMAX panel)

[1] = molecular target: ABL1(H396P)-phosphorylated (Homo sapiens, UniProt P00519, H396P)
CDK8 = molecular target: T11, CDK8 (Homo sapiens, UniProt P49336)
T11 construct: DNA label (qPCR read-out); purchased DiscoverX (assay service)

PRKD3 = molecular target: T12, PRKD3 (Homo sapiens, UniProt O94806)
T12 construct: purchased DiscoveRx (KINOMEscan scanMAX panel)

RIOK1 = molecular target: T13, RIOK1 (Homo sapiens, UniProt Q9BRS2)
T13 construct: DNA label (qPCR read-out); purchased DiscoveRx (KINOMEscan ScanMAX panel)

SRMS = molecular target: T14, SRMS (Homo sapiens, UniProt Q9H3Y6)
T14 construct: purchased KINOMEscan (DiscoveRx)

CAMK2B = molecular target: T15, CAMK2B (Homo sapiens, UniProt Q13554)
T15 construct: DNA label (qPCR read-out); purchased KINOMEscan (ScanMAX panel service)

ERN1 = molecular target: T16, ERN1 (Homo sapiens, UniProt O75460)
T16 construct: DNA label (qPCR read-out); purchased DiscoveRx (KINOMEscan ScanMAX panel)

AMPK-alpha2 = molecular target: T17, AMPK-alpha2 (Homo sapiens, UniProt P54646)
T17 construct: DNA label (qPCR read-out); purchased KINOMEscan scanMAX panel (DiscoveRx)

PHKG2 = molecular target: T18, PHKG2 (Homo sapiens, UniProt P15735)
T18 construct: DNA label (for qPCR read-out); purchased DiscoveRx (KINOMEscan scanMAX service)

PIK3CA(M1043I) = molecular target: T19, PIK3CA(M1043I) (Homo sapiens, UniProt P42336, M1043I)
T19 construct: DNA label; purchased DiscoveRx (KINOMEscan scanMAX panel)

ERBB2 = molecular target: T20, ERBB2 (Homo sapiens, UniProt P04626)
T20 construct: DNA label (qPCR read-out); purchased DiscoveRx (KINOMEscan ScanMAX panel)

PAK2 = molecular target: T21, PAK2 (Homo sapiens, UniProt Q13177)
T21 construct: purchased DiscoverX (KINOMEscan service)

CSNK2A2 = molecular target: T22, CSNK2A2 (Homo sapiens, UniProt P19784)
T22 construct: DNA label; purchased DiscoveRx (KINOMEscan scanMAX panel)

PIP5K1C = molecular target: T23, PIP5K1C (Homo sapiens, UniProt O60331)
T23 construct: DNA label (qPCR read-out); purchased KINOMEscan (DiscoveRx) panel

RET(M918T) = molecular target: T24, RET(M918T) (Homo sapiens, UniProt P07949, M918T)
T24 construct: purchased DiscoveRx (KINOMEscan scanMAX panel)

CAMKK1 = molecular target: T25, CAMKK1 (Homo sapiens, UniProt Q8N5S9)
T25 construct: DNA label (qPCR read-out); purchased KINOMEscan (ScanMAX panel service)

FYN = molecular target: T26, FYN (Homo sapiens, UniProt P06241)
T26 construct: purchased KINOMEscan (DiscoveRx)

PKAC-alpha = molecular target: T27, PKAC-alpha (Homo sapiens, UniProt P17612)
T27 construct: DNA label (qPCR read-out); purchased KINOMEscan (DiscoveRx) panel

PDPK1 = molecular target: T28, PDPK1 (Homo sapiens, UniProt O15530)
T28 construct: DNA label (for qPCR read-out); purchased DiscoveRx (KINOMEscan scanMAX service)

KIT-autoinhibited = molecular target: T29, KIT-autoinhibited (Homo sapiens, UniProt P10721)
T29 construct: purchased KINOMEscan (DiscoveRx) panel service

MEK2 = molecular target: T30, MEK2 (Homo sapiens, UniProt P36507)
T30 construct: purchased DiscoveRx (KINOMEscan scanMAX panel, service)

CSNK1E = molecular target: T31, CSNK1E (Homo sapiens, UniProt P49674)
T31 construct: DNA label (qPCR read-out); purchased DiscoverX (assay service)

FLT3(K663Q) = molecular target: T32, FLT3(K663Q) (Homo sapiens, UniProt P36888, K663Q)
T32 construct: purchased KINOMEscan (DiscoveRx)

TRKB = molecular target: T33, TRKB (Homo sapiens, UniProt Q16620)
T33 construct: DNA label (qPCR read-out); purchased KINOMEscan (DiscoveRx) ScanMAX panel

FLT3(D835Y) = molecular target: T34, FLT3(D835Y) (Homo sapiens, UniProt P36888, D835Y)
T34 construct: purchased DiscoveRx (KINOMEscan scanMAX panel)

ERK5 = molecular target: T35, ERK5 (Homo sapiens, UniProt Q13164)
T35 construct: DNA label (qPCR read-out); purchased DiscoveRx (KINOMEscan ScanMAX panel)

T17 sequence (P54646 whole entry): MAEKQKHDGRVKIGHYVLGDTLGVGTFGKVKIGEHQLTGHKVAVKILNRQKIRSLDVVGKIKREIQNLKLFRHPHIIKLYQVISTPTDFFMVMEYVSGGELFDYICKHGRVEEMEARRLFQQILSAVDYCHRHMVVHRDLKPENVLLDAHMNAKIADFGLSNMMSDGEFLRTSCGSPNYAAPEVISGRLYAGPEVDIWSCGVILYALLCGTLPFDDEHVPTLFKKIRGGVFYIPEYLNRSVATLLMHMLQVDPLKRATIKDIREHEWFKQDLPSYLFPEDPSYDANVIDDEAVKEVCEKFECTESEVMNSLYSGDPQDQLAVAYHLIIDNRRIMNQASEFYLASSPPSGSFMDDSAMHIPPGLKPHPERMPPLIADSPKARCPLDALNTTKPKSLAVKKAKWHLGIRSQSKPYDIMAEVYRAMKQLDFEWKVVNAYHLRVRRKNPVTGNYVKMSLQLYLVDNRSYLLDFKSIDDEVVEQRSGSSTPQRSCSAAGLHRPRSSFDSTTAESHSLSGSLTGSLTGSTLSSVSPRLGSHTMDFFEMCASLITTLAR
T6 sequence (Q9Y2H9 whole entry): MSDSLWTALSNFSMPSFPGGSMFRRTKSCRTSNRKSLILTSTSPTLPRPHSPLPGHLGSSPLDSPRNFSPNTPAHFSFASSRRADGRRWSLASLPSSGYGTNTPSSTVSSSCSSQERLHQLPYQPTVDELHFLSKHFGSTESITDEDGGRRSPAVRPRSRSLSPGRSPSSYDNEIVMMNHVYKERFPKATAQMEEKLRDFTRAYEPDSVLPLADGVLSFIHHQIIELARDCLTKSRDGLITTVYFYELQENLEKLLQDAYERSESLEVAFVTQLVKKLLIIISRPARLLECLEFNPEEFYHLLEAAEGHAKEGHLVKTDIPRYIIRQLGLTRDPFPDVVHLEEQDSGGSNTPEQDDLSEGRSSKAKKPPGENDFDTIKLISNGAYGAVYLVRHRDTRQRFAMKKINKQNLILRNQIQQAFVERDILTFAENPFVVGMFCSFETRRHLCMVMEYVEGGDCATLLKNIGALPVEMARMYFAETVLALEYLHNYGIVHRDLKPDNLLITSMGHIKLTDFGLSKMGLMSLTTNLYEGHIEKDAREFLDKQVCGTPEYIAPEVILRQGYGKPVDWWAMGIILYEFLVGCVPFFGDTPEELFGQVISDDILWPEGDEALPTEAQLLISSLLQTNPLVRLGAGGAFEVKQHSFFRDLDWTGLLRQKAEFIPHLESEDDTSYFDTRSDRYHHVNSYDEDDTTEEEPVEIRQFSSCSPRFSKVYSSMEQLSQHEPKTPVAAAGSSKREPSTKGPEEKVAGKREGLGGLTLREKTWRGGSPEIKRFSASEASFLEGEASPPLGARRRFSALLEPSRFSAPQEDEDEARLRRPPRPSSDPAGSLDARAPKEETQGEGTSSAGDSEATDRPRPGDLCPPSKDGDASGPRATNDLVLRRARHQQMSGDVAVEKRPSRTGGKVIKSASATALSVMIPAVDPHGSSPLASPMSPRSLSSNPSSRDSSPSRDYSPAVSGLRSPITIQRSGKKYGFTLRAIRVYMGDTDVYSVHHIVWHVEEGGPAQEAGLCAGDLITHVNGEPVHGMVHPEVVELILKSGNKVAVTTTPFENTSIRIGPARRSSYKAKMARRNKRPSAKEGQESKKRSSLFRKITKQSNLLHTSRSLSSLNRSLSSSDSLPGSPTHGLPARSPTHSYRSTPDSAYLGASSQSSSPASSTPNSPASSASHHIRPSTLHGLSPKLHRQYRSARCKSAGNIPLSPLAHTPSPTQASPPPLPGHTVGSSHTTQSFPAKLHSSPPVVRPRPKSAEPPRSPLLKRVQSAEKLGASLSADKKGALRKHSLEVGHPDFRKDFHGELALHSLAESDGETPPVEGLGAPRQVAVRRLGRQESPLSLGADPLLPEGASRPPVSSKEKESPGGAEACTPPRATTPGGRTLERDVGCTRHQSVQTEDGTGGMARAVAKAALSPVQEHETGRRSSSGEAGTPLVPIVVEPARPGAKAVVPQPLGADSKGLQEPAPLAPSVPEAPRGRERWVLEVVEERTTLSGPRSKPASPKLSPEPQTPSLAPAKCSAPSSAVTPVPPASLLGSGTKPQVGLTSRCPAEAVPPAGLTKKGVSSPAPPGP
T8 sequence (P36896 24-505): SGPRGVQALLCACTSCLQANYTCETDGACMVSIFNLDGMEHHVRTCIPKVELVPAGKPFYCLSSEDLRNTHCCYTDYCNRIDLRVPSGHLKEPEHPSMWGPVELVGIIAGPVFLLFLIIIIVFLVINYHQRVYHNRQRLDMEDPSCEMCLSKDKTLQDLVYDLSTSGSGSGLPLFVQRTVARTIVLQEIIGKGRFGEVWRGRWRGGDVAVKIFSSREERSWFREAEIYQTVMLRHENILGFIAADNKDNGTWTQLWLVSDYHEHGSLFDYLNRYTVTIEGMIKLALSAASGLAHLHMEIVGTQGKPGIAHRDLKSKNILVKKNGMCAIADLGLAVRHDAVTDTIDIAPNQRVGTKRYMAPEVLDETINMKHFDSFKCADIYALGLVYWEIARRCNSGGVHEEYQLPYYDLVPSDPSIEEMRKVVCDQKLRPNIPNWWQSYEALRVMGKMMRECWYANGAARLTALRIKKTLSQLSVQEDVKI
T15 sequence (Q13554 whole entry): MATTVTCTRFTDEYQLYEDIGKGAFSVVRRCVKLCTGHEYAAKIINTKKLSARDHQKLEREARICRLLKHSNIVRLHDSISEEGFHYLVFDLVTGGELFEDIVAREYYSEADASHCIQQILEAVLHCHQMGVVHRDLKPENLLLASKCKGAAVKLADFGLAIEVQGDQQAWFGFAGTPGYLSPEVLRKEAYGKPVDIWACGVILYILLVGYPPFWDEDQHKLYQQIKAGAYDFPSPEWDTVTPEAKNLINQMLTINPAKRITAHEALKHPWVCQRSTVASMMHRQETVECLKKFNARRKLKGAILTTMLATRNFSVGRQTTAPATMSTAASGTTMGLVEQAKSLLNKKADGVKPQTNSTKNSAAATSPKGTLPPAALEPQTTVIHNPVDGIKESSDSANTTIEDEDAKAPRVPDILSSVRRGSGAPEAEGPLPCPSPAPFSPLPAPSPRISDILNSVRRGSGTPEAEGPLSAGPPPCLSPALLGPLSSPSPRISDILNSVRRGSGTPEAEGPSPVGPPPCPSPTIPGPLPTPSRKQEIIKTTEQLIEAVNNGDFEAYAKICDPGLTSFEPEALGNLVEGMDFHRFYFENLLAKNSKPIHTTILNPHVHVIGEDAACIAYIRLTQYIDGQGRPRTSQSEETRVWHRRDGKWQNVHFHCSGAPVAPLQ
T4 sequence (Q04912 25-1400): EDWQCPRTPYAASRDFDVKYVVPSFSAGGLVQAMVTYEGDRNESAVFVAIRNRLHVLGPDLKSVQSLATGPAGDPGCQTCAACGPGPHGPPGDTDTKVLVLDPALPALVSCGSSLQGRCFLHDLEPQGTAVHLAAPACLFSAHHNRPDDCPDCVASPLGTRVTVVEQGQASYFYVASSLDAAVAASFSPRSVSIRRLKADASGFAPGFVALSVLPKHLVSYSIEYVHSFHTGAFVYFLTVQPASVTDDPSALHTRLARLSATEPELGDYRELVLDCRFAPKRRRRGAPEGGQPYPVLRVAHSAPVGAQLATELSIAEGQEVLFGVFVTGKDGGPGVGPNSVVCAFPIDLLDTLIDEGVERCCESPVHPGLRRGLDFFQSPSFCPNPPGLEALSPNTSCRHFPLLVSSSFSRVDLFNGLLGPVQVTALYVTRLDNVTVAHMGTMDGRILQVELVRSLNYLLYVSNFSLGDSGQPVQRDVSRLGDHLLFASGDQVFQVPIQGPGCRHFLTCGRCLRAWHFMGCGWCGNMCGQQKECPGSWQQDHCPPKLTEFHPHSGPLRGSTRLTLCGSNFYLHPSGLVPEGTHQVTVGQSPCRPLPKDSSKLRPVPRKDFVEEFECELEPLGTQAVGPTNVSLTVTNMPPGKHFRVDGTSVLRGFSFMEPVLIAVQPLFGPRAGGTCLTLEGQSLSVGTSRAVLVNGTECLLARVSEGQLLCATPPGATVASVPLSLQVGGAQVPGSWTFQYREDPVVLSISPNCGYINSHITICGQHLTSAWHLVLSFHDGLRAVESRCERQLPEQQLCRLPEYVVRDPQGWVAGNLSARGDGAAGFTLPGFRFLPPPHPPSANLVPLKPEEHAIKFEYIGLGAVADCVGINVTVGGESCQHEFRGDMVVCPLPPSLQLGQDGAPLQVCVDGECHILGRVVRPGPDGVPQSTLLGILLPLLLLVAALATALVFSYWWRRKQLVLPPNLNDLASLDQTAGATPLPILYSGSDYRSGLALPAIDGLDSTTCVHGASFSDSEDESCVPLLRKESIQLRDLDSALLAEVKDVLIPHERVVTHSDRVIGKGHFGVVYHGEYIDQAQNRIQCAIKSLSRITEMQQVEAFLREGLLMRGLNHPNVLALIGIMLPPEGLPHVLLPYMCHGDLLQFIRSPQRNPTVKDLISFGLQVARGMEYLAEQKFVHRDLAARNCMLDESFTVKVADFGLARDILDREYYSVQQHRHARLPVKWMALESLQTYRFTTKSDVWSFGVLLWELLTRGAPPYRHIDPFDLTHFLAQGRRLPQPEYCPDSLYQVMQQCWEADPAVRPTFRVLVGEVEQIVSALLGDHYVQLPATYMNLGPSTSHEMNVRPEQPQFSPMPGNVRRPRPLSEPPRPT
T29 sequence (P10721 544-976 limits assumed): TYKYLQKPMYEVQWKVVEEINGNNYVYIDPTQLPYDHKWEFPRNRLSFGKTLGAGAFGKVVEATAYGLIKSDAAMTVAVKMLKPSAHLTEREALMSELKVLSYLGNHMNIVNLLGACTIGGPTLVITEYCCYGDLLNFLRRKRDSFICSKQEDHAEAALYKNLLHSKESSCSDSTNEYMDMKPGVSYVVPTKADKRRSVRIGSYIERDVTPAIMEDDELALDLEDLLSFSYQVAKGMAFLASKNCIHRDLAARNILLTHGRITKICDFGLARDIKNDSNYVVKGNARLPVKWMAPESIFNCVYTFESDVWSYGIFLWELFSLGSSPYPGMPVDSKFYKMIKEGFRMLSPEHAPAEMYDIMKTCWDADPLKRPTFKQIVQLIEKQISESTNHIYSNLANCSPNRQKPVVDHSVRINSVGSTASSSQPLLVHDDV

Compound | % Ctrl (ANKK1) | % Ctrl (EGFR) | % Ctrl (ERK8) | % Ctrl (MST1R) | % Ctrl (ACVRL1) | % Ctrl (MAST1) | % Ctrl (HIPK3) | % Ctrl (ACVR1B) | % Ctrl (HPK1) | % Ctrl (EPHA1) | % Ctrl [1] | % Ctrl (CDK8) | % Ctrl (PRKD3) | % Ctrl (RIOK1) | % Ctrl (SRMS) | % Ctrl (CAMK2B) | % Ctrl (ERN1) | % Ctrl (AMPK-alpha2) | % Ctrl (PHKG2) | % Ctrl (PIK3CA(M1043I)) | further results
[2H]C([2H])([2H])N(C(=O)c1ccc(N2CCCN(c3ccnc4sc(C(N)=O)c(N)c34)CC2)cc1)C([2H])([2H])[2H] [15u_D6, 3-amino-4-(4-(4-(bis(methyl-d3)carbamoyl)phenyl)-1,4-diazepan-1-yl)thieno[2,3-b]pyridine-2-carboxamide] | 91 % Ctrl | 87 % Ctrl | 99 % Ctrl | 99 % Ctrl | 100 % Ctrl | 92 % Ctrl | 81 % Ctrl | 99 % Ctrl | 100 % Ctrl | 95 % Ctrl | 77 % Ctrl | 0.25 % Ctrl | 100 % Ctrl | 100 % Ctrl | 93 % Ctrl | 87 % Ctrl | 80 % Ctrl | 95 % Ctrl | 83 % Ctrl | 95 % Ctrl | % Ctrl (ERBB2): 89 % Ctrl; % Ctrl (PAK2): 94 % Ctrl; % Ctrl (CSNK2A2): 100 % Ctrl; % Ctrl (PIP5K1C): 25 % Ctrl; % Ctrl (RET(M918T)): 98 % Ctrl; % Ctrl (CAMKK1): 100 % Ctrl; % Ctrl (FYN): 97 % Ctrl; % Ctrl (PKAC-alpha): 100 % Ctrl; % Ctrl (PDPK1): 96 % Ctrl; % Ctrl (KIT-autoinhibited): 90 % Ctrl; % Ctrl (MEK2): 82 % Ctrl; % Ctrl (CSNK1E): 12 % Ctrl; % Ctrl (FLT3(K663Q)): 91 % Ctrl; % Ctrl (TRKB): 78 % Ctrl; % Ctrl (FLT3(D835Y)): 100 % Ctrl; % Ctrl (ERK5): 98 % Ctrl
CN(C)C(=O)c1ccc(N2CCCN(c3ccnc4sc(C(N)=O)c(N)c34)CC2)cc1 [15u, 3-amino-4-(4-(4-(dimethylcarbamoyl)phenyl)-1,4-diazepan-1-yl)thieno[2,3-b]pyridine-2-carboxamide] | 100 % Ctrl | 100 % Ctrl | 98 % Ctrl | 97 % Ctrl | 99 % Ctrl | 92 % Ctrl | 77 % Ctrl | 100 % Ctrl | 98 % Ctrl | 92 % Ctrl | 94 % Ctrl | 2.6 % Ctrl | 94 % Ctrl | 100 % Ctrl | 81 % Ctrl | 92 % Ctrl | 100 % Ctrl | 80 % Ctrl | 86 % Ctrl | 96 % Ctrl | % Ctrl (ERBB2): 100 % Ctrl; % Ctrl (PAK2): 91 % Ctrl; % Ctrl (CSNK2A2): 92 % Ctrl; % Ctrl (PIP5K1C): 64 % Ctrl; % Ctrl (RET(M918T)): 98 % Ctrl; % Ctrl (CAMKK1): 96 % Ctrl; % Ctrl (FYN): 99 % Ctrl; % Ctrl (PKAC-alpha): 95 % Ctrl; % Ctrl (PDPK1): 100 % Ctrl; % Ctrl (KIT-autoinhibited): 90 % Ctrl; % Ctrl (MEK2): 88 % Ctrl; % Ctrl (CSNK1E): 25 % Ctrl; % Ctrl (FLT3(K663Q)): 96 % Ctrl; % Ctrl (TRKB): 88 % Ctrl; % Ctrl (FLT3(D835Y)): 46 % Ctrl; % Ctrl (ERK5): 59 % Ctrl
